According to ChEMBL document CHEMBL2203140, “Syntheses and structure-activity relationship studies of N-substituted-β-D-glucosaminides as selective cytotoxic agents” (Bioorg Med Chem Lett, 2012):

Key:
Assay type in all cases: functional, cell-based
MCF7 = assay: Cytotoxicity against human MCF7 cells after 48 hrs by MTT assay; details: MCF7, 48 h
HeLa = assay: Cytotoxicity against human HeLa cells after 48 hrs by MTT assay
HCT-116 = assay: Cytotoxicity against human HCT116 cells after 48 hrs by MTT assay; details: HCT-116, 48 h
HepG2 = assay: Cytotoxicity against human HepG2 cells after 48 hrs by MTT assay; details: HepG2, 48 h
HT-1080 = assay: Cytotoxicity against human HT1080 cells after 48 hrs by MTT assay; details: HT-1080, 48 h
A549 = assay: Cytotoxicity against human A549 cells after 48 hrs by MTT assay; details: A549, 48 h

Structure (SMILES) | IC50 (MCF7) | IC50 (HeLa) | IC50 (HCT-116) | IC50 (HepG2) | IC50 (HT-1080) | IC50 (A549)
C[C@@H]1CC[C@@]2(OC1)O[C@H]1C[C@H]3[C@@H]4CC=C5C[C@@H](O[C@@H]6O[C@H](CO)[C@@H](O)[C@H](O)[C@H]6NC(=O)/C=C/c6cccc(Cl)c6)CC[C@]5(C)[C@H]4CC[C@]3(C)[C@H]1[C@@H]2C | > 50 µM | > 50 µM | > 50 µM | > 50 µM | > 50 µM | > 50 µM
COc1ccc(/C=N/NC(=S)N[C@H]2[C@H](O[C@H]3CC[C@@]4(C)C(=CC[C@H]5[C@@H]6C[C@@H]7O[C@]8(CC[C@@H](C)CO8)[C@@H](C)[C@@H]7[C@@]6(C)CC[C@@H]54)C3)O[C@H](CO)[C@@H](O)[C@@H]2O)cc1 | > 50 µM | 34.8 µM | 38.2 µM | 28.2 µM | > 50 µM | 37.3 µM
COc1ccc(/C=C/C(=O)N[C@H]2[C@H](O[C@H]3CC[C@@]4(C)C(=CC[C@H]5[C@@H]6C[C@@H]7O[C@]8(CC[C@@H](C)CO8)[C@@H](C)[C@@H]7[C@@]6(C)CC[C@@H]54)C3)O[C@H](CO)[C@@H](O)[C@@H]2O)cc1 | 0.5 µM | 6.1 µM | 29.5 µM | 30.7 µM | 3.5 µM | 24.4 µM
C[C@@H]1CC[C@@]2(OC1)O[C@H]1C[C@H]3[C@@H]4CC=C5C[C@@H](O[C@@H]6O[C@H](CO)[C@@H](O)[C@H](O)[C@H]6NC(=O)NN6CCCCC6)CC[C@]5(C)[C@H]4CC[C@]3(C)[C@H]1[C@@H]2C | > 50 µM | > 50 µM | > 50 µM | > 50 µM | 35.1 µM | > 50 µM
Cc1ccc(/C=C/C(=O)N[C@H]2[C@H](O[C@H]3CC[C@@]4(C)C(=CC[C@H]5[C@@H]6C[C@@H]7O[C@]8(CC[C@@H](C)CO8)[C@@H](C)[C@@H]7[C@@]6(C)CC[C@@H]54)C3)O[C@H](CO)[C@@H](O)[C@@H]2O)cc1 | 5.3 µM | 6.5 µM | 40.4 µM | 35.5 µM | 23.5 µM | 41.6 µM
C[C@@H]1CC[C@@]2(OC1)O[C@H]1C[C@H]3[C@@H]4CC=C5C[C@@H](O[C@@H]6O[C@H](CO)[C@@H](O)[C@H](O)[C@H]6NC(=O)/C=C/c6ccccc6[N+](=O)[O-])CC[C@]5(C)[C@H]4CC[C@]3(C)[C@H]1[C@@H]2C | > 50 µM | > 50 µM | > 50 µM | > 50 µM | 36.5 µM | > 50 µM
C[C@@H]1CC[C@@]2(OC1)O[C@H]1C[C@H]3[C@@H]4CC=C5C[C@@H](O[C@@H]6O[C@H](CO)[C@@H](O)[C@H](O)[C@H]6NC(=O)NC(C)(C)C)CC[C@]5(C)[C@H]4CC[C@]3(C)[C@H]1[C@@H]2C | 26.8 µM | 27.6 µM | > 50 µM | > 50 µM | 42.3 µM | > 50 µM
COc1ccc(/C=C/C(=O)N[C@H]2[C@H](O[C@H]3CC[C@@]4(C)C(=CC[C@H]5[C@@H]6C[C@@H]7O[C@]8(CC[C@@H](C)CO8)[C@@H](C)[C@@H]7[C@@]6(C)CC[C@@H]54)C3)O[C@H](CO)[C@@H](O)[C@@H]2O)cc1OC | 31.3 µM | 26.1 µM | 29 µM | 25.9 µM | > 50 µM | 30.3 µM
